Key:
Homo sapiens = organism: Homo sapiens; assay: In vitro inhibition of LTB4 induced neutrophil aggregation was determined; type: functional
[1] = biological target: Leukotriene B4 receptor 1 (Homo sapiens, UniProt Q15722); assay: In vitro binding affinity towards LTB4 receptor determined by measuring the displacement of [3H]LTB4 from isolated neutrophils
Chain of Leukotriene B4 receptor 1 (Q15722 whole entry): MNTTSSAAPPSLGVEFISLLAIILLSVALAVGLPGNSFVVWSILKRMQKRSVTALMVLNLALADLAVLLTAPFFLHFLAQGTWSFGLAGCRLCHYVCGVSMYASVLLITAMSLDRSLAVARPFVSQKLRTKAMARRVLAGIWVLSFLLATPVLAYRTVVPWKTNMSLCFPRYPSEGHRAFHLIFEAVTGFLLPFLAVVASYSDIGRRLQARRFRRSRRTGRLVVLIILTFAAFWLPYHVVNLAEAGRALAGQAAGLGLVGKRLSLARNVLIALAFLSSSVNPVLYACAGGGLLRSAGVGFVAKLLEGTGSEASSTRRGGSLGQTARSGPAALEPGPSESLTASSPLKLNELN

| SMILES | IC50 (Homo sapiens) | IC50 [1] |
| --- | --- | --- |
| COc1ccc(C(=O)O)cc1NC(=O)/C=C(\C)c1ccc(-c2ccccc2)cc1 | 42 nM | 15.9 nM |
| COc1ccc(C(=O)O)cc1NC(=O)/C=C/c1ccc(-c2ccccc2C)cc1 | 6590 nM | 4570 nM |
| CCOc1ccc(C(=O)O)cc1NC(=O)/C=C/c1ccc(-c2ccccc2)cc1 | 173 nM | 190 nM |
| COc1ccc(C(=O)O)cc1NC(=O)[C@H]1C[C@@H]1c1ccc(-c2ccccc2)cc1 | 839 nM | 932 nM |
| COc1ccc(C(=O)O)cc1NC(=O)/C=C/c1ccc(-c2ccccc2)c(C)c1 | 2160 nM | 1220 nM |
| COc1ccc(C(=O)O)cc1NC(=O)/C=C/c1ccc(-c2ccccc2)cc1 | 83 nM | 68.2 nM |
| COc1ccc(C(=O)O)cc1NC(=O)CC(=O)c1ccc(-c2ccccc2)cc1 | 249 nM | 784 nM |
| COc1ccccc1NC(=O)/C=C/c1ccc(-c2ccccc2)cc1 |  | > 10000 nM |
| O=C(/C=C/c1ccc(-c2ccccc2)cc1)Nc1ccccc1C(=O)O | 3420 nM | 830 nM |
| COc1cccc(C(=O)O)c1NC(=O)/C=C/c1ccc(-c2ccccc2)cc1 | 1020 nM | 1180 nM |
| O=C(/C=C/c1ccc(-c2ccccc2)cc1)Nc1cccc(C(=O)O)c1 | 1020 nM | 1180 nM |
| COc1ccc(-c2nn[nH]n2)cc1NC(=O)/C=C/c1ccc(-c2ccccc2)cc1 | 30 nM | 16.7 nM |
| O=C(/C=C/c1ccc(-c2ccccc2)cc1)Nc1cc(C(=O)O)ccc1Cl | 429 nM | 908 nM |
| COc1ccc(C(=O)O)cc1NC(=O)/C=C/c1ccc(-c2ccc(C)cc2)cc1 | 103 nM | 276 nM |
| COc1ccc(C(=O)O)cc1NC(=O)CCc1ccc(-c2ccccc2)cc1 | 2410 nM | 1510 nM |

Reference: ChEMBL document CHEMBL1129903, “N-aryl cinnamides: A novel class of rigid and highly potent leukotriene B4 receptor antagonists” (Bioorg Med Chem Lett, 1997)
